From ChEMBL document CHEMBL6083273, “Targeting Periplakin of Novel Benzenesulfonamides as Highly Selective Agonists for the Treatment of Vitiligo” (2024)
The source made the active and inactive calls. The calls are words filed in the database; no cut-off is given here.

Legend:
Danio rerio [1] = species: Danio rerio; assay: Induction of melanogenesis in zebrafish treated for 24 hrs by absorbance based assay (reference value: 98.2 to 100.3 %); assay type: functional
Danio rerio [2] = species: Danio rerio; assay: Effect on tryptophan metabolism in zebrafish embryo assessed as 3-HAA metabolite level at 10 uM by LC/MS analysis; assay type: functional
Danio rerio [3] = species: Danio rerio; assay: Effect on tryptophan metabolism in zebrafish embryo assessed as 3-HK metabolite level at 10 uM by LC/MS analysis; assay type: functional
Danio rerio [4] = species: Danio rerio; assay: Effect on tryptophan metabolism in zebrafish embryo assessed as 5-HIAA metabolite level at 10 uM by LC/MS analysis; assay type: functional
Danio rerio [5] = species: Danio rerio; assay: Effect on tryptophan metabolism in zebrafish embryo assessed as 5-HTOL metabolite level at 10 uM by LC/MS analysis; assay type: functional
Danio rerio [6] = species: Danio rerio; assay: Effect on tryptophan metabolism in zebrafish embryo assessed as 5-HTP metabolite level at 10 uM by LC/MS analysis; assay type: functional
Danio rerio [7] = species: Danio rerio; assay: Effect on tryptophan metabolism in zebrafish embryo assessed as AA metabolite level at 10 uM by LC/MS analysis; assay type: functional
Danio rerio [8] = species: Danio rerio; assay: Effect on tryptophan metabolism in zebrafish embryo assessed as IA metabolite level at 10 uM by LC/MS analysis; assay type: functional
Danio rerio [9] = species: Danio rerio; assay: Effect on tryptophan metabolism in zebrafish embryo assessed as IAA metabolite level at 10 uM by LC/MS analysis; assay type: functional
Danio rerio [10] = species: Danio rerio; assay: Effect on tryptophan metabolism in zebrafish embryo assessed as IAN metabolite level at 10 uM by LC/MS analysis; assay type: functional
Danio rerio [11] = species: Danio rerio; assay: Effect on tryptophan metabolism in zebrafish embryo assessed as ICA metabolite level at 10 uM by LC/MS analysis; assay type: functional
Danio rerio [12] = species: Danio rerio; assay: Effect on tryptophan metabolism in zebrafish embryo assessed as LE metabolite level at 10 uM by LC/MS analysis; assay type: functional
Danio rerio [13] = species: Danio rerio; assay: Effect on tryptophan metabolism in zebrafish embryo assessed as IGA metabolite level at 10 uM by LC/MS analysis; assay type: functional
Danio rerio [14] = species: Danio rerio; assay: Effect on tryptophan metabolism in zebrafish embryo assessed as ILA metabolite level at 10 uM by LC/MS analysis; assay type: functional
Danio rerio [15] = species: Danio rerio; assay: Effect on tryptophan metabolism in zebrafish embryo assessed as indican metabolite level at 10 uM by LC/MS analysis; assay type: functional
Danio rerio [16] = species: Danio rerio; assay: Effect on tryptophan metabolism in zebrafish embryo assessed as indole metabolite level at 10 uM by LC/MS analysis; assay type: functional
Danio rerio [17] = species: Danio rerio; assay: Effect on tryptophan metabolism in zebrafish embryo assessed as IPA metabolite level at 10 uM by LC/MS analysis; assay type: functional
Danio rerio [18] = species: Danio rerio; assay: Effect on tryptophan metabolism in zebrafish embryo assessed as NA metabolite level at 10 uM by LC/MS analysis; assay type: functional
Danio rerio [19] = species: Danio rerio; assay: Effect on tryptophan metabolism in zebrafish embryo assessed as NAS metabolite level at 10 uM by LC/MS analysis; assay type: functional
Danio rerio [20] = species: Danio rerio; assay: Effect on tryptophan metabolism in zebrafish embryo assessed as skatole metabolite level at 10 uM by LC/MS analysis; assay type: functional
Danio rerio [21] = species: Danio rerio; assay: Effect on tryptophan metabolism in zebrafish embryo assessed as Trp metabolite level at 10 uM by LC/MS analysis; assay type: functional
Danio rerio [22] = species: Danio rerio; assay: Effect on tryptophan metabolism in zebrafish embryo assessed as Xa metabolite level at 10 uM by LC/MS analysis; assay type: functional
Danio rerio [23] = species: Danio rerio; assay: Induction of melanogenesis in zebrafish treated for 24 hrs by absorbance based assay; assay type: functional, organism-based
Danio rerio [24] = species: Danio rerio; assay: Induction of melanogenesis in zebrafish at 40 uM treated for 24 hrs by absorbance based assay relative to control; assay type: functional
Danio rerio [25] = species: Danio rerio; assay: Induction of melanogenesis in zebrafish at 10 uM treated for 24 hrs by absorbance based assay; assay type: functional, organism-based
Mus musculus [26] = assay: Induction of melanogenesis in hydroquinone-induced vitiligo C57BL/6J mouse assessed as darker hair color administered topically for 20 days; assay type: functional, organism-based; settings: route top, time 20.0 day
Mus musculus [27] = assay: Induction of melanogenesis in hydroquinone-induced vitiligo C57BL/6J mouse at 1.5 % administered topically for 20 days by Masson-Fontana staining based analysis; assay type: functional, organism-based; settings: route top, time 20.0 day
Danio rerio [28] = species: Danio rerio; assay: Induction of melanogenesis in wild-type zebrafish at 10 uM treated for 24 hrs by absorbance based assay; assay type: functional, organism-based
Danio rerio [29] = species: Danio rerio; assay: Induction of melanogenesis in zebrafish harboring PPL-/- at 10 uM treated for 24 hrs by absorbance based assay; assay type: functional, organism-based
[30] = Induction of melanogenesis in co-culture of HEK293 cells and mouse B16-F10 cells at 10 uM incubated for 48 hrs by Masson-Fontana staining based analysis relative to control; assay type: functional
[31] = Induction of melanogenesis in co-culture of HEK293 cells transfected with PPL (unknown origin) and mouse B16-F10 cells at 10 uM incubated for 48 hrs by Masson-Fontana staining based analysis relative to control; assay type: functional
Danio rerio [32] = species: Danio rerio; assay: Binding affinity to PPL in zebrafish incubated for 10 mins by LiP-SMap analysis; settings: filed as agonist
Danio rerio [33] = species: Danio rerio; assay: Binding affinity to PPL in zebrafish at 10 uM by pull down assay; settings: filed as agonist
Mus musculus [34] = assay: In vivo agonist activity at PPL in skin of hydroquinone-induced vitiligo C57BL/6J mouse at 1.5 % administered topically for 20 days by immunofluorescence analysis; assay type: functional, organism-based; settings: time 20.0 day
Danio rerio [35] = species: Danio rerio; assay: Effect on purine metabolism in zebrafish embryo at 10 uM by KEGG pathway-enrichment analysis; assay type: functional, organism-based
Danio rerio [36] = species: Danio rerio; assay: Effect on histidine metabolism in zebrafish embryo at 10 uM by KEGG pathway-enrichment analysis; assay type: functional, organism-based
Danio rerio [37] = species: Danio rerio; assay: Effect on pyrimidine metabolism in zebrafish embryo at 10 uM by KEGG pathway-enrichment analysis; assay type: functional, organism-based
Danio rerio [38] = assay: In vivo agonist activity at PPL in zebrafish assessed as increase in cAMP content at 10 uM by ELISA; assay type: functional, organism-based
Danio rerio [39] = assay: In vivo agonist activity at PPL in zebrafish assessed as increase in mitfa mRNA level at 10 uM by ISH analysis; assay type: functional, organism-based
Danio rerio [40] = assay: In vivo agonist activity at PPL in zebrafish assessed as increase in mitfa mRNA level at 10 uM by qRT-PCR analysis; assay type: functional, organism-based
Danio rerio [41] = assay: In vivo agonist activity at PPL in zebrafish assessed as increase in Tyr mRNA level at 10 uM by ISH analysis; assay type: functional, organism-based
Danio rerio [42] = assay: In vivo agonist activity at PPL in zebrafish assessed as increase in Dct mRNA level at 10 uM by ISH analysis; assay type: functional, organism-based
Danio rerio [43] = species: Danio rerio; assay: Effect on cAMP content in zebrafish harboring PPL-/- at 10 uM by ELISA; assay type: functional, organism-based
Danio rerio [44] = species: Danio rerio; assay: Effect on mitfa mRMA level in zebrafish harboring PPL-/- at 10 uM by qRT-PCR analysis; assay type: functional
Danio rerio [45] = species: Danio rerio; assay: Effect on tryptophan metabolism in zebrafish embryo assessed as KYNA metabolite level at 10 uM by LC/MS analysis; assay type: functional

Compound: Cc1cc(-c2ccc([C@H](C)Nc3nccc(NS(=O)(=O)c4ccc([N+](=O)[O-])cc4)n3)cc2)ccc1F
- Activity (Danio rerio [1]): 108.21%
- Activity (Danio rerio [2]): 3.54 nmol/kg
- Activity (Danio rerio [3]): 93.63 nmol/kg
- Activity (Danio rerio [4]): 55.63 nmol/kg
- Activity (Danio rerio [5]): 0.03 nmol/kg
- Activity (Danio rerio [6]): 54.62 nmol/kg
- Activity (Danio rerio [7]): 14.25 nmol/kg
- Activity (Danio rerio [8]): 22 nmol/kg
- Activity (Danio rerio [9]): 3.45 nmol/kg
- Activity (Danio rerio [10]): 17.69 nmol/kg
- Activity (Danio rerio [11]): 38.27 nmol/kg
- Activity (Danio rerio [12]): 32.11 nmol/kg
- Activity (Danio rerio [13]): 2.84 nmol/kg
- Activity (Danio rerio [14]): 105.98 nmol/kg
- Activity (Danio rerio [15]): 0.95 nmol/kg
- Activity (Danio rerio [16]): 788.07 nmol/kg
- Activity (Danio rerio [17]): 19.38 nmol/kg
- Activity (Danio rerio [18]): 2107.11 nmol/kg
- Activity (Danio rerio [19]): 0.06 nmol/kg
- Activity (Danio rerio [20]): 582.83 nmol/kg
- Activity (Danio rerio [21]): 206300.5 nmol/kg
- Activity (Danio rerio [22]): 430.99 nmol/kg

Compound: Cc1cc(-c2ccc([C@H](C)Nc3nccc(NS(=O)(=O)c4cccc([N+](=O)[O-])c4)n3)cc2)ccc1F
- Activity (Danio rerio [23]): Dose-dependent-effect
- Emax at 40 µM (Danio rerio [24]): 197%
- Activity (Danio rerio [25]): Active
- Activity (Mus musculus [26]): Dose-dependent-effect
- Activity (Mus musculus [27]): Active; Calcipotriene And Ruxolitinib Was Considerably Less Than The Compound At Concentration Of 1.5%
- Activity (Danio rerio [28]): Active
- Activity (Danio rerio [29]): inactive
- Activity [30]: 107.32%
- Activity [31]: 137.24%
- Activity (Danio rerio [32]): Active
- Activity (Danio rerio [33]): Active
- Activity (Danio rerio [1]): 171.43%
- Activity (Mus musculus [34]): Active
- Activity (Danio rerio [35]): Active
- Activity (Danio rerio [36]): Active
- Activity (Danio rerio [37]): Active
- Activity (Danio rerio [38]): Active
- Activity (Danio rerio [39]): Active
- Activity (Danio rerio [40]): Active
- Activity (Danio rerio [41]): Active
- Activity (Danio rerio [42]): Active
- Activity (Danio rerio [43]): No effect
- Activity (Danio rerio [44]): No effect
- Activity (Danio rerio [2]): 3.14 nmol/kg
- Activity (Danio rerio [3]): 81.53 nmol/kg
- Activity (Danio rerio [4]): 76.93 nmol/kg
- Activity (Danio rerio [5]): 0.03 nmol/kg
- Activity (Danio rerio [6]): 41.08 nmol/kg
- Activity (Danio rerio [7]): 15.09 nmol/kg
- Activity (Danio rerio [8]): 21.8 nmol/kg
- Activity (Danio rerio [9]): 4.89 nmol/kg
- Activity (Danio rerio [10]): 16.28 nmol/kg
- Activity (Danio rerio [11]): 24.76 nmol/kg
- Activity (Danio rerio [12]): 41.42 nmol/kg
- Activity (Danio rerio [13]): 1.2 nmol/kg
- Activity (Danio rerio [14]): 109.9 nmol/kg
- Activity (Danio rerio [16]): 635.89 nmol/kg
- Activity (Danio rerio [17]): 20.08 nmol/kg
- Activity (Danio rerio [45]): 8.23 nmol/kg
- Activity (Danio rerio [18]): 2295.89 nmol/kg
- Activity (Danio rerio [19]): 0.07 nmol/kg
- Activity (Danio rerio [20]): 527.99 nmol/kg
- Activity (Danio rerio [21]): 203749.8 nmol/kg
- Activity (Danio rerio [22]): 399.41 nmol/kg
